Measurements taken from PubChem BioAssay (NCI).
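Interpolation was linear, between the two tested concentrations surrounding the appropriate level; five concentrations were tested over 48 hours in 96-well plates. GI50: concentration for 50% inhibition of growth. At the TGI there is no net growth.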

Assays:
Assay in all cases: NCI anticancer screen, dose series, 48 h
NCI-H226 lung = tested on: NCI-H226 lung
IGROV1 ovarian = tested on: IGROV1 ovarian
HOP-92 NSCLC = tested on: HOP-92 NSCLC
M14 melanoma = tested on: M14 melanoma
SW-620 colon = tested on: SW-620 colon
T-47D breast = tested on: T-47D breast
K-562 leukemia = tested on: K-562 leukemia
MDA-MB-435 = tested on: MDA-MB-435
MDA-MB-231 breast = tested on: MDA-MB-231 breast
CAKI-1 renal = tested on: CAKI-1 renal
SR leukemia = tested on: SR leukemia
CCRF-CEM leukemia = tested on: CCRF-CEM leukemia
RPMI-8226 leukemia = tested on: RPMI-8226 leukemia
UO-31 renal = tested on: UO-31 renal
SNB-75 CNS = tested on: SNB-75 CNS
HCC-2998 colon = tested on: HCC-2998 colon
SN12C renal = tested on: SN12C renal
SF-268 CNS = tested on: SF-268 CNS
ACHN renal = tested on: ACHN renal
HL-60(TB) leukemia = tested on: HL-60(TB) leukemia
OVCAR-3 ovarian = tested on: OVCAR-3 ovarian
COLO 205 colon = tested on: COLO 205 colon
MOLT-4 leukemia = tested on: MOLT-4 leukemia
SK-MEL-28 melanoma = tested on: SK-MEL-28 melanoma
A549 NSCLC = tested on: A549 NSCLC
LOX IMVI melanoma = tested on: LOX IMVI melanoma
OVCAR-4 ovarian = tested on: OVCAR-4 ovarian
BT-549 breast = tested on: BT-549 breast
786-0 renal = tested on: 786-0 renal
HS 578T breast = tested on: HS 578T breast
UACC-62 melanoma = tested on: UACC-62 melanoma
NCI/ADR-RES ovarian = tested on: NCI/ADR-RES ovarian
KM12 colon = tested on: KM12 colon
SNB-19 CNS = tested on: SNB-19 CNS
A498 renal = tested on: A498 renal
HT29 colon = tested on: HT29 colon
UACC-257 melanoma = tested on: UACC-257 melanoma
HOP-62 NSCLC = tested on: HOP-62 NSCLC
SK-MEL-2 melanoma = tested on: SK-MEL-2 melanoma
U251 CNS = tested on: U251 CNS
SK-MEL-5 melanoma = tested on: SK-MEL-5 melanoma
OVCAR-5 ovarian = tested on: OVCAR-5 ovarian
EKVX NSCLC = tested on: EKVX NSCLC
SF-539 CNS = tested on: SF-539 CNS
SF-295 CNS = tested on: SF-295 CNS
NCI-H460 lung = tested on: NCI-H460 lung
NCI-H23 lung = tested on: NCI-H23 lung
NCI-H522 lung = tested on: NCI-H522 lung
SK-OV-3 ovarian = tested on: SK-OV-3 ovarian
HCT-15 colon = tested on: HCT-15 colon
TK-10 renal = tested on: TK-10 renal
RXF 393 renal = tested on: RXF 393 renal
DU-145 prostate = tested on: DU-145 prostate
PC-3 prostate = tested on: PC-3 prostate
MCF7 breast = tested on: MCF7 breast
HCT-116 colon = tested on: HCT-116 colon

Work on N#Cc1c(-c2ccc(Cl)cc2)csc1NC(=O)Nc1cccc(C(F)(F)F)c1 yielded a GI50 (NCI-H226 lung) of 3.42 µM, a TGI (NCI-H226 lung) of 10.5 µM and a GI50 (IGROV1 ovarian) of 3.51 µM. The TGI (IGROV1 ovarian) was 14.2 µM, the GI50 (HOP-92 NSCLC) was 2.34 µM and the TGI (HOP-92 NSCLC) was 5.93 µM. For the same compound, the GI50 (M14 melanoma) was 2.88 µM, the TGI (M14 melanoma) was 10.1 µM and the GI50 (SW-620 colon) was 3.33 µM. For the same compound, the TGI (SW-620 colon) was 13.9 µM, the GI50 (T-47D breast) was 1.76 µM and the TGI (T-47D breast) was 7.79 µM. It also gave a GI50 (K-562 leukemia) of 2.97 µM, a TGI (K-562 leukemia) of 12.2 µM and a GI50 (MDA-MB-435) of 2.73 µM. The TGI (MDA-MB-435) was 10.3 µM, the GI50 (MDA-MB-231 breast) was 1.78 µM and the TGI (MDA-MB-231 breast) was 3.72 µM. The GI50 (CAKI-1 renal) was 2.7 µM, the TGI (CAKI-1 renal) was 10.5 µM and the GI50 (SR leukemia) was 2.41 µM. For the same compound, the TGI (SR leukemia) was 8.41 µM, the GI50 (CCRF-CEM leukemia) was 3.17 µM and the TGI (CCRF-CEM leukemia) was 12 µM. It also gave a GI50 (RPMI-8226 leukemia) of 1.84 µM, a TGI (RPMI-8226 leukemia) of 7 µM and a GI50 (UO-31 renal) of 1.8 µM. The TGI (UO-31 renal) was 5.48 µM, the GI50 (SNB-75 CNS) was 2.01 µM and the TGI (SNB-75 CNS) was 12.7 µM. For the same compound, the GI50 (HCC-2998 colon) was 2.75 µM, the TGI (HCC-2998 colon) was 7.97 µM and the GI50 (SN12C renal) was 2.93 µM. It also gave a TGI (SN12C renal) of 10.7 µM, a GI50 (SF-268 CNS) of 3.28 µM and a TGI (SF-268 CNS) of 14.7 µM. The GI50 (ACHN renal) was 2.23 µM, the TGI (ACHN renal) was 6.51 µM and the GI50 (HL-60(TB) leukemia) was 2.43 µM. It also gave a TGI (HL-60(TB) leukemia) of 6.69 µM, a GI50 (OVCAR-3 ovarian) of 2.73 µM and a TGI (OVCAR-3 ovarian) of 11.2 µM. For the same compound, the GI50 (COLO 205 colon) was 1.91 µM, the TGI (COLO 205 colon) was 3.88 µM and the GI50 (MOLT-4 leukemia) was 1.91 µM. The TGI (MOLT-4 leukemia) was 7.77 µM, the GI50 (SK-MEL-28 melanoma) was 2.65 µM and the TGI (SK-MEL-28 melanoma) was 8.97 µM. The GI50 (A549 NSCLC) was 2.57 µM, the TGI (A549 NSCLC) was 11.4 µM and the GI50 (LOX IMVI melanoma) was 2.64 µM. It also gave a TGI (LOX IMVI melanoma) of 9.48 µM, a GI50 (OVCAR-4 ovarian) of 3.2 µM and a TGI (OVCAR-4 ovarian) of 14.4 µM. For the same compound, the GI50 (BT-549 breast) was 2.62 µM, the TGI (BT-549 breast) was 9.23 µM and the GI50 (786-0 renal) was 2 µM. For the same compound, the TGI (786-0 renal) was 4.85 µM, the GI50 (HS 578T breast) was 3.25 µM and the TGI (HS 578T breast) was 23.9 µM. For the same compound, the GI50 (UACC-62 melanoma) was 2.92 µM, the TGI (UACC-62 melanoma) was 12 µM and the GI50 (NCI/ADR-RES ovarian) was 2.1 µM. It also gave a TGI (NCI/ADR-RES ovarian) of 4.7 µM, a GI50 (KM12 colon) of 2.64 µM and a TGI (KM12 colon) of 9.9 µM. For the same compound, the GI50 (SNB-19 CNS) was 3.39 µM, the TGI (SNB-19 CNS) was 13.4 µM and the GI50 (A498 renal) was 1.79 µM. It also gave a TGI (A498 renal) of 4.3 µM, a GI50 (HT29 colon) of 2.5 µM and a TGI (HT29 colon) of 10.5 µM. For the same compound, the GI50 (UACC-257 melanoma) was 2.53 µM, the TGI (UACC-257 melanoma) was 6.74 µM and the GI50 (HOP-62 NSCLC) was 2.33 µM. For the same compound, the TGI (HOP-62 NSCLC) was 8.04 µM, the GI50 (SK-MEL-2 melanoma) was 2 µM and the TGI (SK-MEL-2 melanoma) was 4.57 µM. It also gave a GI50 (U251 CNS) of 2.09 µM, a TGI (U251 CNS) of 5.46 µM and a GI50 (SK-MEL-5 melanoma) of 1.74 µM. It also gave a TGI (SK-MEL-5 melanoma) of 3.18 µM, a GI50 (OVCAR-5 ovarian) of 2.98 µM and a TGI (OVCAR-5 ovarian) of 12.9 µM. The GI50 (EKVX NSCLC) was 1.97 µM, the TGI (EKVX NSCLC) was 9.75 µM and the GI50 (SF-539 CNS) was 2.06 µM. It also gave a TGI (SF-539 CNS) of 4.85 µM, a GI50 (SF-295 CNS) of 1.74 µM and a TGI (SF-295 CNS) of 4.21 µM. It also gave a GI50 (NCI-H460 lung) of 2.76 µM, a TGI (NCI-H460 lung) of 10.2 µM and a GI50 (NCI-H23 lung) of 1.99 µM. It also gave a TGI (NCI-H23 lung) of 5.33 µM, a GI50 (NCI-H522 lung) of 1.65 µM and a TGI (NCI-H522 lung) of 5.99 µM. For the same compound, the GI50 (SK-OV-3 ovarian) was 2.54 µM, the TGI (SK-OV-3 ovarian) was 6.89 µM and the GI50 (HCT-15 colon) was 2.38 µM. For the same compound, the TGI (HCT-15 colon) was 10.2 µM, the GI50 (TK-10 renal) was 2.23 µM and the TGI (TK-10 renal) was 8.95 µM. It also gave a GI50 (RXF 393 renal) of 2.33 µM, a TGI (RXF 393 renal) of 5.96 µM and a GI50 (DU-145 prostate) of 3.21 µM. For the same compound, the TGI (DU-145 prostate) was 13.9 µM, the GI50 (PC-3 prostate) was 2.43 µM and the TGI (PC-3 prostate) was 11.5 µM. For the same compound, the GI50 (MCF7 breast) was 3.04 µM, the TGI (MCF7 breast) was 9.97 µM and the GI50 (HCT-116 colon) was 2.33 µM. It also gave a TGI (HCT-116 colon) of 8.44 µM.
